# Numbered stars: 1 amine (or outer) side, 2 acyl side, 3 side chain; on linkers, the order of the positions; unused ones are H or OH. Square brackets hold non-standard residues; d marks the D form. Peptide text beside a SMILES is read from it. ξ: configuration not given here. X1 = N=C1NCC(C(O)C(N[*:1])C(=O)[*:2])N1C1OC(CO)C(O)C(O)C1O; ξEnduracididine(βξ-OH,4'ξ) = N=C1NCC(C(O)C(N)C(=O)O)N1; Cha = N[CH](CC1CCCCC1)C(=O)O
# Legend:
# Enterococcus sp. = experiment: in vitro antibacterial evaluation, MIC by broth dilution; type: cell-based; details: broth dilution, 18 hours at 35° C.
# Summary of the method: (§1)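 MIC, the lowest antibiotic concentration preventing growth, was read across 64-0.06 μg/mL with 5×10^5 CFU/mL inoculum. Method followed NCCLS M7-A2 broth dilution using Mueller-Hinton II; Gram-positive strains covered recent methicillin-, penicillin- and/or vancomycin-resistant clinical isolates.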
# Staphylococcus sp. = experiment: as above; type: cell-based; details: broth dilution, 18 hours at 35° C.
# Summary of the method: as §1
# Streptococcus sp. = experiment: as above; type: cell-based; details: broth dilution, 18 hours at 35° C.
# Summary of the method: as §1
# [1] = clinical pathology (serum clinical chemistry) in mice; type: in vivo; details: CD-1 mice, 20 mg/kg intravenously daily for 9 days, sera day 10
# Description: 20-day-old CD-1 mice were divided into a vehicle control group (5 mice) and a treatment group (5 mice). Samples of glycopeptide antibiotics were administered at 20 mg/kg intravenously daily for 9 days.
# [2] = anatomic pathology (histopathology of heart and kidney) in mice; type: in vivo; details: CD-1 mice, 20 mg/kg intravenously daily for 9 days, necropsy day 10, microscopic histopathology
# Description: Samples of tissues from necropsied mice were formalin-fixed, paraffin-embedded, sectioned, stained with hematoxylin and eosin, and examined microscopically. Histopathologic findings were recorded. These findings were subjectively graded on a scale corresponding to slight, mild, moderate, marked and severe as compared to untreated controls.
# Escherichia coli = experiment: in vitro antibacterial evaluation, MIC by broth dilution; type: cell-based; details: broth dilution, 18 hours at 35° C.
# Summary of the method: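 MIC is the lowest antibiotic concentration (tested 64-0.06 μg/mL) preventing growth of a 5×10^5 CFU/mL inoculum. Determined by broth dilution in Mueller-Hinton II medium following NCCLS standard M7-A2.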
structure (smiles),measurement,setting,value
"N=C1NCC(C(O)C2NC(=O)C(CC3CCCCC3)NC(=O)C(CC3CCCCC3)NC(=O)CNC(=O)C(CO)NC(=O)C(C(O)C3CNC(=N)N3C3OC(CO)C(O)C(O)C3O)NC2=O)N1 (stereo not drawn) [Example 52, Cyclo[3-cyclohexylalanyl-3-cyclohexylalanyl-3-(2-iminoimidazolidin-4-yl)seryl-3-(3-hexopyranosyl-2-iminoimidazolidin-4-yl)serylserylglycyl]] (cyclo(G[Cha][Cha][ξEnduracididine(βξ-OH,4'ξ)][X1]S); configuration not given here)",MIC Enterococcus faecalis (ATCC 29212),Enterococcus sp.; strain ATCC 29212,64 µg/mL
same,MIC Enterococcus faecalis (GC 2242),Enterococcus sp.; strain GC 2242,32 µg/mL
same,MIC Enterococcus faecium (GC 2243),Enterococcus sp.; strain GC 2243,16 µg/mL
same,MIC Enterococcus faecalis (GC 2691),Enterococcus sp.; strain GC 2691,32 µg/mL
same,MIC Enterococcus faecalis (GC 3059),Enterococcus sp.; strain GC 3059,32 µg/mL
same,MIC Enterococcus faecalis (GC 4552),Enterococcus sp.; strain GC 4552,32 µg/mL
same,MIC Enterococcus faecalis (GC 4553),Enterococcus sp.; strain GC 4553,16 µg/mL
same,MIC Enterococcus faecalis (GC 4554),Enterococcus sp.; strain GC 4554,64 µg/mL
same,MIC Enterococcus faecium (GC 4556),Enterococcus sp.; strain GC 4556,32 µg/mL
same,MIC Enterococcus faecium (GC 4557),Enterococcus sp.; strain GC 4557,8 µg/mL
same,MIC Enterococcus avium (GC 4558),Enterococcus sp.; strain GC 4558,32 µg/mL
same,MIC Enterococcus faecalis (GC 6189),Enterococcus sp.; strain GC 6189,32 µg/mL
same,MIC Staphylococcus aureus (ATCC 29213),Staphylococcus sp.; strain ATCC 29213,16 µg/mL
same,MIC Staphylococcus aureus (GC 1131),Staphylococcus sp.; strain GC 1131,16 µg/mL
same,MIC Staphylococcus aureus (GC 3051),Staphylococcus sp.; strain GC 3051,16 µg/mL
same,MIC Staphylococcus aureus (GC 3053),Staphylococcus sp.; strain GC 3053,32 µg/mL
same,MIC Staphylococcus aureus (GC 4541),Staphylococcus sp.; strain GC 4541,16 µg/mL
same,MIC Staphylococcus aureus (GC 4542),Staphylococcus sp.; strain GC 4542,8 µg/mL
same,MIC Staphylococcus aureus-SMITH (GC 4543),Staphylococcus sp.; strain GC 4543,16 µg/mL
same,MIC Staphylococcus aureus (GC 4544),Staphylococcus sp.; strain GC 4544,16 µg/mL
same,MIC Staphylococcus aureus (GC 4545),Staphylococcus sp.; strain GC 4545,8 µg/mL
same,MIC Staphylococcus haemolyticus (GC 4546),Staphylococcus sp.; strain GC 4546,4 µg/mL
same,MIC Coagulase Negative Staphylococcus (GC 4547),Staphylococcus sp.; strain GC 4547,8 µg/mL
same,MIC Coagulase Negative Staphylococcus (GC 4548),Staphylococcus sp.; strain GC 4548,8 µg/mL
same,MIC Coagulase Negative Staphylococcus (GC 4549),Staphylococcus sp.; strain GC 4549,4 µg/mL
same,MIC Coagulase Negative Staphylococcus (GC 4551),Staphylococcus sp.; strain GC 4551,8 µg/mL
same,MIC Streptococcus pneumoniae (ATCC 6301),Streptococcus sp.; strain ATCC 6301,8 µg/mL
same,MIC Streptococcus pneumoniae (GC 1894),Streptococcus sp.; strain GC 1894,8 µg/mL
same,MIC Streptococcus pyogenes (GC 4563),Streptococcus sp.; strain GC 4563,8 µg/mL
same,MIC Streptococcus agalactiae (GC 4564),Streptococcus sp.; strain GC 4564,8 µg/mL
same,MIC Streptococcus pneumoniae (GC 4565),Streptococcus sp.; strain GC 4565,16 µg/mL
same,"Clinical Chemistry (Day 10) % of Control, BUN",[1],211%
same,"Anatomical Pathology (Day 10), Heart",[2],0
same,"Anatomical Pathology (Day 10), Kidney",[2],+++
same,MIC Escherichia coli (ATCC 25922),Escherichia coli; strain ATCC 25922,64 µg/mL
same,MIC Escherichia coli (GC 4559),Escherichia coli; strain GC 4559,64 µg/mL
same,MIC Escherichia coli (GC 4560),Escherichia coli; strain GC 4560,16 µg/mL

# — US6914045B2, “Glycopeptide antibiotics” (Wyeth Holdings Corporation, priority 2001, dated 2005)
